Test system: Caco-2 cells
Experiment: Caco-2 permeability
Assay type: in vitro ADME
Settings: Caco-2 bidirectional assay
Protocol: (iii) Caco-2 Permeability
Caco-2 cells were seeded onto Millipore Multiscreen plates at 1×10^5 cells/cm^2, and were cultured for 20 days. Assessment of compound permeability was subsequently conducted. The compounds were applied to the apical surface (A) of cell monolayers and compound permeation into the basolateral (B) compartment was measured. This was performed in the reverse direction (B-A) to investigate active transport. A permeability coefficient value, Papp, for each compound, a measure of the rate of permeation of the compound across the membrane, was calculated. Compounds were grouped into low Papp</=1.0×10^6 cm/s) or high Papp>/=1.0×10^6cm/s) absorption potential based on comparison with control compounds with established human absorption.
For assessment of a compound's ability to undergo active efflux, the ratio of basolateral (B) to apical (A) transport compared with A to B was determined. Values of B−A/A−B>/=1.0 indicated the occurrence of active cellular efflux. All of the compounds tested through the Caco-2 permeability screen had Papp values >/=[…].

CN1CCN(Cc2cc3nc(-c4cccc(O)c4)nc(N4CCOCC4)c3s2)CC1 [PI540]
B−A/A−B asymmetry index: less than 1.0
